Results from US20020026053A1, “Novel 3-(substituted) -2- indolinones compounds and use thereof as inhibitors of protein kinase activity” (priority 1997, published 2002).

Molecular target: T1, Met receptor (EGFR/Met chimeric cells, EMR) (Homo sapiens, UniProt P08581)
T1 construct: expressed in transfected cells; the other entry of the earlier key: EGFR (P00533, Epidermal growth factor receptor)
Test: Met Autophosphorylation Assay
Type: biochemical
Conditions: protocol P.130
In short: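 Met phosphorylation was measured by capture ELISA. Lysates (90 μg/100 μl, HNTG plus 1 mM PMSF) from transiently transfected EGFR/Met chimera (EMR) cells were bound for 60 min at room temperature to wells holding rabbit anti-Met (C-28) on goat anti-rabbit coat. Phosphotyrosine was the read-out.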

T1 sequence (P08581 with tags, fused parts or gaps): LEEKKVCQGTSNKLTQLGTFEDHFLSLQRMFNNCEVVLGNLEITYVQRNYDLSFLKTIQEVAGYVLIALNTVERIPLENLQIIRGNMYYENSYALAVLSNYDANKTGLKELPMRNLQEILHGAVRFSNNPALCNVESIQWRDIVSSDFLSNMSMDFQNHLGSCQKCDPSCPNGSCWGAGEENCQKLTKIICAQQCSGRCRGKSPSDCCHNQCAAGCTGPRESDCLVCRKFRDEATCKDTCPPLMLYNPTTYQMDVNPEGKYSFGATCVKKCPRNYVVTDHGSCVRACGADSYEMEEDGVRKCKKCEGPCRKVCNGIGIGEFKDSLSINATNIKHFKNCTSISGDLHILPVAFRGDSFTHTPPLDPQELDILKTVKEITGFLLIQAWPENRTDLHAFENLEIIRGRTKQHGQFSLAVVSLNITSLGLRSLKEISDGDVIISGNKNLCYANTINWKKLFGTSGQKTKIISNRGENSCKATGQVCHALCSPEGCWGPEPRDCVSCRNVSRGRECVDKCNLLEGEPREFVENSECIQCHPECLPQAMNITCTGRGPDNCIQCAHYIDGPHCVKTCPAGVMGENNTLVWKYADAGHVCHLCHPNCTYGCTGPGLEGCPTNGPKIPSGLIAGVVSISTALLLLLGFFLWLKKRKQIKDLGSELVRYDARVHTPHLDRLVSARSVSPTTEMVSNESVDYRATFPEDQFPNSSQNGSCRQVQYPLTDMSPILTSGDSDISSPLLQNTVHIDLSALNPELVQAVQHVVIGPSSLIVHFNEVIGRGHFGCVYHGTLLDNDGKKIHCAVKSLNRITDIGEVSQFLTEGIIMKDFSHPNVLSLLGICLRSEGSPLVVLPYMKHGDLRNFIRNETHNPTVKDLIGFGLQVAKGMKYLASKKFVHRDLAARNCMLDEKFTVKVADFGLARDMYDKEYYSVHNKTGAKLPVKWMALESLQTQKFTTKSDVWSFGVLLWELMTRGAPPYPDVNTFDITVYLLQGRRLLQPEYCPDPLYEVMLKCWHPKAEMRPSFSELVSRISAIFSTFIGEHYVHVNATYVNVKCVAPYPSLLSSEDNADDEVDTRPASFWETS

| SMILES | Met Kinase % Inhibition (P.130) [%] |
| --- | --- |
| Cc1c(Br)cc(Br)c2c1C(=Cc1cccc(F)c1)C(=O)N2 [10736/H07] | 31.0 |
| Cc1c(Br)cc(Br)c2c1C(=Cc1ccccc1F)C(=O)N2 [10736/H08] | 33.4 |
| CCc1ccc(C=C2C(=O)Nc3c(Br)cc(Br)c(C)c32)cc1 [10736/H09] | 32.1 |
| COc1cccc(C=C2C(=O)Nc3c(Br)cc(Br)c(C)c32)c1 [10736/H10] | 32.1 |
| Cc1c(Br)cc(Br)c2c1C(=Cc1ccccc1Cl)C(=O)N2 [10736/H11] | 41.5 |
| CCOc1ccc(C=C2C(=O)Nc3c(Br)cc(Br)cc32)cc1 [10737/A02] | 53.2 |
| Cc1ccc(C=C2C(=O)Nc3c(Br)cc(Br)cc32)c(C)c1 [10737/A03] | 58.9 |
| O=C1Nc2c(Br)cc(Br)cc2C1=Cc1cc(F)ccc1F [10737/A04] | 63.5 |
| O=C1Nc2c(Br)cc(Br)cc2C1=Cc1cccc(F)c1F [10737/A05] | 58.9 |
| COc1ccc(C=C2C(=O)Nc3c(Br)cc(Br)cc32)cc1F [10737/A06] | 57.1 |
| Cc1ccc(C)c(C=C2C(=O)Nc3c(Br)cc(Br)cc32)c1 [10737/A07] | 30.1 |
| O=C1Nc2c(Br)cc(Br)cc2C1=Cc1ccc2ccccc2c1 [10737/A08] | 28.3 |
| O=C1Nc2c(Br)cc(Br)cc2C1=Cc1ccc(Oc2ccccc2)cc1 [10737/A09] | 47.9 |
| CC(C)(C)c1ccc(Oc2cccc(C=C3C(=O)Nc4c(Br)cc(Br)cc43)c2)cc1 [10737/A10] | 15.5 |
| O=C1Nc2c(Br)cc(Br)cc2C1=Cc1cccc(Oc2cccc(C(F)(F)F)c2)c1 [10737/A11] | 25.3 |
| CCOc1ccc(C=C2C(=O)Nc3ccc(I)cc32)cc1 [10737/B02] | 85.0 |
| Cc1ccc(C=C2C(=O)Nc3ccc(I)cc32)c(C)c1 [10737/B03] | 86.3 |
| O=C1Nc2ccc(I)cc2C1=Cc1cc(F)ccc1F [10737/B04] | 88.9 |
| O=C1Nc2ccc(I)cc2C1=Cc1cccc(F)c1F [10737/B05] | 89.5 |
| COc1ccc(C=C2C(=O)Nc3ccc(I)cc32)cc1F [10737/B06] | 84.7 |
| Cc1ccc(C)c(C=C2C(=O)Nc3ccc(I)cc32)c1 [10737/B07] | 82.5 |
| O=C1Nc2ccc(I)cc2C1=Cc1ccc2ccccc2c1 [10737/B08] | 84.1 |
| O=C1Nc2ccc(I)cc2C1=Cc1ccc(Oc2ccccc2)cc1 [10737/B09] | 77.0 |
| CC(C)(C)c1ccc(Oc2cccc(C=C3C(=O)Nc4ccc(I)cc43)c2)cc1 [10737/B10] | 84.7 |
| O=C1Nc2ccc(I)cc2C1=Cc1cccc(Oc2cccc(C(F)(F)F)c2)c1 [10737/B11] | 78.8 |
| CCOc1ccc(C=C2C(=O)Nc3ccc(Br)c(C)c32)cc1 [10737/C02] | 30.6 |

| SMILES | Met Kinase % Inhibition (P.130) [%] |
| --- | --- |
| Cc1ccc(C=C2C(=O)Nc3ccc(Br)c(C)c32)c(C)c1 [10737/C03] | 52.5 |
| Cc1c(Br)ccc2c1C(=Cc1cc(F)ccc1F)C(=O)N2 [10737/C04] | 82.0 |
| Cc1c(Br)ccc2c1C(=Cc1cccc(F)c1F)C(=O)N2 [10737/C05] | 81.8 |
| COc1ccc(C=C2C(=O)Nc3ccc(Br)c(C)c32)cc1F [10737/C06] | 38.6 |
| Cc1ccc(C)c(C=C2C(=O)Nc3ccc(Br)c(C)c32)c1 [10737/C07] | 57.5 |
| Cc1c(Br)ccc2c1C(=Cc1ccc3ccccc3c1)C(=O)N2 [10737/C08] | 54.1 |
| Cc1c(Br)ccc2c1C(=Cc1ccc(Oc3ccccc3)cc1)C(=O)N2 [10737/C09] | 27.6 |
| Cc1c(Br)ccc2c1C(=Cc1cccc(Oc3ccc(C(C)(C)C)cc3)c1)C(=O)N2 [10737/C10] | 60.0 |
| Cc1c(Br)ccc2c1C(=Cc1cccc(Oc3cccc(C(F)(F)F)c3)c1)C(=O)N2 [10737/C11] | 34.0 |
| CCOc1ccc(C=C2C(=O)Nc3ccc(S(=O)(=O)NC)cc32)cc1 [10737/D02] | 27.8 |
| CNS(=O)(=O)c1ccc2c(c1)C(=Cc1ccc(C)cc1C)C(=O)N2 [10737/D03] | 38.6 |
| CNS(=O)(=O)c1ccc2c(c1)C(=Cc1cc(F)ccc1F)C(=O)N2 [10737/D04] | 33.5 |
| CNS(=O)(=O)c1ccc2c(c1)C(=Cc1cccc(F)c1F)C(=O)N2 [10737/D05] | 41.8 |
| CNS(=O)(=O)c1ccc2c(c1)C(=Cc1ccc(OC)c(F)c1)C(=O)N2 [10737/D06] | 37.4 |
| CNS(=O)(=O)c1ccc2c(c1)C(=Cc1cc(C)ccc1C)C(=O)N2 [10737/D07] | 37.0 |
| CNS(=O)(=O)c1ccc2c(c1)C(=Cc1ccc3ccccc3c1)C(=O)N2 [10737/D08] | 42.0 |
| CNS(=O)(=O)c1ccc2c(c1)C(=Cc1ccc(Oc3ccccc3)cc1)C(=O)N2 [10737/D09] | 36.0 |
| CNS(=O)(=O)c1ccc2c(c1)C(=Cc1cccc(Oc3ccc(C(C)(C)C)cc3)c1)C(=O)N2 [10737/D10] | 24.8 |
| CNS(=O)(=O)c1ccc2c(c1)C(=Cc1cccc(Oc3cccc(C(F)(F)F)c3)c1)C(=O)N2 [10737/D11] | 43.4 |
| CCOc1ccc(C=C2C(=O)Nc3ccc(S(=O)(=O)Nc4ccc(C(F)(F)F)cc4)cc32)cc1 [10737/E02] | 53.0 |
| Cc1ccc(C=C2C(=O)Nc3ccc(S(=O)(=O)Nc4ccc(C(F)(F)F)cc4)cc32)c(C)c1 [10737/E03] | 13.4 |
| O=C1Nc2ccc(S(=O)(=O)Nc3ccc(C(F)(F)F)cc3)cc2C1=Cc1cc(F)ccc1F [10737/E04] | 79.3 |
| O=C1Nc2ccc(S(=O)(=O)Nc3ccc(C(F)(F)F)cc3)cc2C1=Cc1cccc(F)c1F [10737/E05] | 80.9 |
| COc1ccc(C=C2C(=O)Nc3ccc(S(=O)(=O)Nc4ccc(C(F)(F)F)cc4)cc32)cc1F [10737/E06] | 57.8 |
| Cc1ccc(C)c(C=C2C(=O)Nc3ccc(S(=O)(=O)Nc4ccc(C(F)(F)F)cc4)cc32)c1 [10737/E07] | 43.1 |
| O=C1Nc2ccc(S(=O)(=O)Nc3ccc(C(F)(F)F)cc3)cc2C1=Cc1ccc2ccccc2c1 [10737/E08] | 61.9 |

| SMILES | Met Kinase % Inhibition (P.130) [%] |
| --- | --- |
| O=C1Nc2ccc(S(=O)(=O)Nc3ccc(C(F)(F)F)cc3)cc2C1=Cc1ccc(Oc2ccccc2)cc1 [10737/E09] | 21.2 |
| CC(C)(C)c1ccc(Oc2cccc(C=C3C(=O)Nc4ccc(S(=O)(=O)Nc5ccc(C(F)(F)F)cc5)cc43)c2)cc1 [10737/E10] | 49.3 |
| O=C1Nc2ccc(S(=O)(=O)Nc3ccc(C(F)(F)F)cc3)cc2C1=Cc1cccc(Oc2cccc(C(F)(F)F)c2)c1 [10737/E11] | 24.8 |
| CCOc1ccc(C=C2C(=O)Nc3ccc(S(=O)(=O)N4CCOCC4)cc32)cc1 [10737/F02] | 67.4 |
| Cc1ccc(C=C2C(=O)Nc3ccc(S(=O)(=O)N4CCOCC4)cc32)c(C)c1 [10737/F03] | 28.0 |
| O=C1Nc2ccc(S(=O)(=O)N3CCOCC3)cc2C1=Cc1cc(F)ccc1F [10737/F04] | 62.8 |
| O=C1Nc2ccc(S(=O)(=O)N3CCOCC3)cc2C1=Cc1cccc(F)c1F [10737/F05] | 67.1 |
| COc1ccc(C=C2C(=O)Nc3ccc(S(=O)(=O)N4CCOCC4)cc32)cc1F [10737/F06] | 62.8 |
| Cc1ccc(C)c(C=C2C(=O)Nc3ccc(S(=O)(=O)N4CCOCC4)cc32)c1 [10737/F07] | 33.3 |
| O=C1Nc2ccc(S(=O)(=O)N3CCOCC3)cc2C1=Cc1ccc2ccccc2c1 [10737/F08] | 76.1 |
| O=C1Nc2ccc(S(=O)(=O)N3CCOCC3)cc2C1=Cc1ccc(Oc2ccccc2)cc1 [10737/F09] | 76.5 |
| CC(C)(C)c1ccc(Oc2cccc(C=C3C(=O)Nc4ccc(S(=O)(=O)N5CCOCC5)cc43)c2)cc1 [10737/F10] | 78.6 |
| O=C1Nc2ccc(S(=O)(=O)N3CCOCC3)cc2C1=Cc1cccc(Oc2cccc(C(F)(F)F)c2)c1 [10737/F11] | 75.6 |
| CCOc1ccc(C=C2C(=O)Nc3ccc(CCCl)cc32)cc1 [10737/G02] | 32.2 |
| Cc1ccc(C=C2C(=O)Nc3ccc(CCCl)cc32)c(C)c1 [10737/G03] | 37.4 |
| O=C1Nc2ccc(CCCl)cc2C1=Cc1cc(F)ccc1F [10737/G04] | 49.1 |
| O=C1Nc2ccc(CCCl)cc2C1=Cc1cccc(F)c1F [10737/G05] | 53.2 |
| COc1ccc(C=C2C(=O)Nc3ccc(CCCl)cc32)cc1F [10737/G06] | 50.7 |
| Cc1ccc(C)c(C=C2C(=O)Nc3ccc(CCCl)cc32)c1 [10737/G07] | 41.8 |
| O=C1Nc2ccc(CCCl)cc2C1=Cc1ccc2ccccc2c1 [10737/G08] | 31.2 |
| O=C1Nc2ccc(CCCl)cc2C1=Cc1ccc(Oc2ccccc2)cc1 [10737/G09] | 37.9 |
| CC(C)(C)c1ccc(Oc2cccc(C=C3C(=O)Nc4ccc(CCCl)cc43)c2)cc1 [10737/G10] | 22.8 |
| O=C1Nc2ccc(CCCl)cc2C1=Cc1cccc(Oc2cccc(C(F)(F)F)c2)c1 [10737/G11] | 35.1 |
| CCOc1ccc(C=C2C(=O)Nc3c(Br)cc(Br)c(C)c32)cc1 [10737/H02] | 42.9 |
| Cc1ccc(C=C2C(=O)Nc3c(Br)cc(Br)c(C)c32)c(C)c1 [10737/H03] | 46.1 |
